# Tests used:
# [1] = tested on: E. tenella; experiment: Efficacy against E. tenella in broiler cockerels (Table I); assay type: in vivo, Eimeria tenella; details: for Percent Mortality: due to coccidiosis; for Percent Weight Gain: normal controls = 100; for Average Cecal Lesion Score: scale 0-4
# Method: (§1) The anticoccidial effects of the A204I derivatives are illustrated by the effects of various of the compounds in controlling single-species infections of Eimeria tenella, Eimeria necatrix, Eimeria mivati, and Eimeria brunetti and a multiple-species infection of Eimeria maxima and Eimeria tenella in chickens.
# (§2) For these studies, groups of five 7-day-old chicks were fed a mash diet containing therein a uniformly dispersed A204I derivative. After having been on this ration for 48 hours, each bird was inoculated with sporulated oocysts of the particular species of Eimeria being tested.
# (§3) Some of these groups were also inoculated with Eimeria after 48 hours and served as infected controls. Other of these groups were not inoculated with Eimeria and served as normal controls. The results of treatment were evaluated 7 days after inoculation. The birds were weighed, sacrificed and examined for evidence of coccidial lesions. Coccidial involvement was expressed on an arbitrary scale, increasing from zero (no evidence of coccidiosis) to four (maximum involvement for the Eimeria sp. tested). The percent reduction in lesion score is calculated by subtracting the average lesion score of the treated group from the average lesion score of the infected control group, dividing this difference by the average lesion score of the infected control group, and multiplying the quotient by 100.
# (§4) The percent weight gain is calculated using the weight gain of normal controls as 100 percent.
# [2] = Acute oral toxicity in mice; details: mouse, in vivo
# Text: The acute toxicities in mice of various of the A204I derivatives, also administered orally and expressed as LD50, are as follows: […]
# [3] = tested on: E. necatrix; experiment: Efficacy against E. necatrix in broiler cockerels (Table II); assay type: in vivo, Eimeria necatrix; details: for Percent Mortality: due to coccidiosis; for Percent Weight Gain: normal controls = 100; for Average Intestinal Lesion Score: scale 0-4; for Percent Reduction Lesion Score: vs infected controls
# Method: as §1, §2, §3, §4
# [4] = tested on: E. mivati; experiment: Efficacy against E. mivati in broiler cockerels (Table III); assay type: in vivo, Eimeria mivati; details: for Percent Mortality: due to coccidiosis; for Percent Weight Gain: normal controls = 100; for Average Intestinal Lesion Score: scale 0-4; for Percent Reduction Lesion Score: vs infected controls
# Method: as §1, §2, §3, §4
# [5] = tested on: E. brunetti; experiment: Efficacy against E. brunetti in broiler cockerels (Table IV); assay type: in vivo, Eimeria brunetti; details: for Percent Mortality: due to coccidiosis; for Percent Weight Gain: normal controls = 100; for Average Lesion Score: scale 0-4; for Percent Reduction Lesion Score: vs infected controls
# Method: as §1, §2, §3, §4
# [6] = tested on: E. maxima and E. tenella; experiment: Efficacy against a mixed infection of E. maxima and E. tenella in broiler cockerels (Table V); assay type: in vivo, Eimeria maxima and Eimeria tenella; details: for Percent Mortality: due to coccidiosis; for Percent Weight Gain: normal controls = 100; for Cecal Lesions, Average Lesion Score / Intestinal Lesions, Average Lesion Score: scale 0-4; for Intestinal Lesions, Percent Reduction Lesion Score / Cecal Lesions, Percent Reduction Lesion Score: vs infected controls
# Method: as §1, §2, §3, §4
# [7] = Rat feeding studies (Table VII); assay type: in vivo, rats; details: 14 days, mean
# Method: For this test, five rats of each sex were studied for 14 days at each treatment level. The mean changes in body weight and the mean amounts of food ingested were calculated for each group.
# [8] = pKa' determination; details: 66% aqueous dimethylformamide
# [9] = second experiment, .0025 percent in diet
# [10] = second experiment, .0025 percent in diet, vs infected control
# [11] = first experiment, .00165 percent in diet
# [12] = first experiment, .0066 percent in diet
# [13] = second experiment, .005 percent in diet
structure (smiles),measurement,setting,value
COCCOC1(C(C)C(=O)O)OC(CC2CC(OC)C(C)C3(O2)OC(C)(C2CCC(C4CCC(C5OC(C)(O)C(C)C(OC)C5C)O4)O2)C(OC)C3C)C(C)(OC)C(OC2CCC(OC)C(C)O2)C1C (stereo not shown) [A204I 2-methoxyethyl ether derivative],Percent Mortality,[1]; [9],0%
same,Percent Weight Gain,[1]; [9],90%
same,Average Cecal Lesion Score,[1]; [9],2.9
same,Percent Reduction Lesion Score,[1]; [10],< 40%
"COC1CCC(OC2C(C)C(OC(C)C)(C(C)C(=O)O)OC(CC3CC(OC)C(C)C4(O3)OC(C)(C3CCC(C5CCC(C6OC(C)(O)C(C)C(OC)C6C)O5)O3)C(OC)C4C)C2(C)OC)OC1C (stereo not shown) [A204I isopropyl ether, A204I isopropyl ether derivative]",Percent Mortality,[1]; [9],0%
same,Percent Weight Gain,[1]; [9],95%
same,Average Cecal Lesion Score,[1]; [9],2.3
same,Percent Reduction Lesion Score,[1]; [10],< 40%
same,LD50,[2],20 to 36 mg/kg
"CCCOC1(C(C)C(=O)O)OC(CC2CC(OC)C(C)C3(O2)OC(C)(C2CCC(C4CCC(C5OC(C)(O)C(C)C(OC)C5C)O4)O2)C(OC)C3C)C(C)(OC)C(OC2CCC(OC)C(C)O2)C1C (stereo not shown) [A204I n-propyl ether, A204I n-propyl ether derivative]",Percent Mortality,[1]; [11],35%
same,Percent Weight Gain,[1]; [11],79%
same,Average Cecal Lesion Score,[1]; [11],4.0
same,Percent Reduction Lesion Score,"[1]; first experiment, .00165 percent in diet, vs infected controls",0%
same,Percent Mortality,[1]; [12],20%
same,Percent Weight Gain,[1]; [12],79%
same,Average Cecal Lesion Score,[1]; [12],3.7
same,Percent Reduction Lesion Score,"[1]; first experiment, .0066 percent in diet, vs infected controls",0%
same,Percent Mortality,[1]; [9],0%
same,Percent Weight Gain,[1]; [9],87%
same,Average Cecal Lesion Score,[1]; [9],1.8
same,Percent Reduction Lesion Score,[1]; [10],50%
same,Percent Mortality,[1]; [13],0%
same,Percent Weight Gain,[1]; [13],96%
same,Average Cecal Lesion Score,[1]; [13],0
same,Percent Reduction Lesion Score,"[1]; second experiment, .005 percent in diet, vs infected control",100%
same,Percent Mortality,[3]; .0025 percent in diet,0%
same,Percent Weight Gain,[3]; .0025 percent in diet,63%
same,Average Intestinal Lesion Score,[3]; .0025 percent in diet,1.6
same,Percent Reduction Lesion Score,[3]; .0025 percent in diet,59%
same,Percent Mortality,[3]; .005 percent in diet,6.7%
same,Percent Weight Gain,[3]; .005 percent in diet,92%
same,Average Intestinal Lesion Score,[3]; .005 percent in diet,0.2
same,Percent Reduction Lesion Score,[3]; .005 percent in diet,95%
same,Percent Mortality,[3]; .01 percent in diet,0%
same,Percent Weight Gain,[3]; .01 percent in diet,89%
same,Average Intestinal Lesion Score,[3]; .01 percent in diet,0
same,Percent Reduction Lesion Score,[3]; .01 percent in diet,100%
same,Percent Mortality,[4]; .0025 percent in diet,0%
same,Percent Weight Gain,[4]; .0025 percent in diet,94%
same,Average Intestinal Lesion Score,[4]; .0025 percent in diet,0.27
same,Percent Reduction Lesion Score,[4]; .0025 percent in diet,85%
same,Percent Mortality,[4]; .005 percent in diet,0%
same,Percent Weight Gain,[4]; .005 percent in diet,97%
same,Average Intestinal Lesion Score,[4]; .005 percent in diet,0
same,Percent Reduction Lesion Score,[4]; .005 percent in diet,100%
same,Percent Mortality,[4]; .01 percent in diet,0%
same,Percent Weight Gain,[4]; .01 percent in diet,98%
same,Average Intestinal Lesion Score,[4]; .01 percent in diet,0
same,Percent Reduction Lesion Score,[4]; .01 percent in diet,100%
same,Percent Mortality,[5]; .0025 percent in diet,0%
same,Percent Weight Gain,[5]; .0025 percent in diet,95%
same,Average Lesion Score,[5]; .0025 percent in diet,0.80
same,Percent Mortality,[5]; .005 percent in diet,0%
same,Percent Weight Gain,[5]; .005 percent in diet,89%
same,Average Lesion Score,[5]; .005 percent in diet,0
same,Percent Reduction Lesion Score,[5]; .005 percent in diet,100%
same,Percent Mortality,[5]; .01 percent in diet,0%
same,Percent Weight Gain,[5]; .01 percent in diet,89%
same,Average Lesion Score,[5]; .01 percent in diet,0
same,Percent Reduction Lesion Score,[5]; .01 percent in diet,100%
same,Percent Mortality,[6]; .0025 percent in diet,0%
same,Percent Weight Gain,[6]; .0025 percent in diet,94%
same,"Cecal Lesions, Average Lesion Score",[6]; .0025 percent in diet,2.67
same,"Intestinal Lesions, Average Lesion Score",[6]; .0025 percent in diet,0.13
same,"Intestinal Lesions, Percent Reduction Lesion Score",[6]; .0025 percent in diet,84%
same,Percent Mortality,[6]; .005 percent in diet,0%
same,Percent Weight Gain,[6]; .005 percent in diet,99%
same,"Cecal Lesions, Average Lesion Score",[6]; .005 percent in diet,0.07
same,"Intestinal Lesions, Average Lesion Score",[6]; .005 percent in diet,0.07
same,"Cecal Lesions, Percent Reduction Lesion Score",[6]; .005 percent in diet,98%
same,"Intestinal Lesions, Percent Reduction Lesion Score",[6]; .005 percent in diet,91%
same,Percent Mortality,[6]; .01 percent in diet,0%
same,Percent Weight Gain,[6]; .01 percent in diet,98%
same,"Cecal Lesions, Average Lesion Score",[6]; .01 percent in diet,0
same,"Intestinal Lesions, Average Lesion Score",[6]; .01 percent in diet,0
same,"Cecal Lesions, Percent Reduction Lesion Score",[6]; .01 percent in diet,100%
same,"Intestinal Lesions, Percent Reduction Lesion Score",[6]; .01 percent in diet,100%
same,LD50,[2],38 ± 6 mg/kg
same,Body Weight Change,"[7]; female, 5 ppm",+34.0 g
same,Food ingested,"[7]; female, 5 ppm",224 g
same,Body Weight Change,"[7]; female, 10 ppm",+36.0 g
same,Food ingested,"[7]; female, 10 ppm",218 g
same,Body Weight Change,"[7]; female, 20 ppm",+31.6 g
same,Food ingested,"[7]; female, 20 ppm",229 g
same,Body Weight Change,"[7]; male, 5 ppm",+77.8 g
same,Food ingested,"[7]; male, 5 ppm",281 g
same,Body Weight Change,"[7]; male, 10 ppm",+45.2 g
same,Food ingested,"[7]; male, 10 ppm",221 g
same,Body Weight Change,"[7]; male, 20 ppm",+66.6 g
same,Food ingested,"[7]; male, 20 ppm",288 g
same,pKa,[8],7.8

# Source: patent US3953474A
